Earlier results, collected in patent US20050255076A1, “Therapeutic cream for dermatitis” (priority 2004, published 2005).

Conditions: in alcohol and in water

Properties: solubility: Soluble in alcohol and water
SMILES: C[S+](C)[O-] [Dimethyl sulfoxide]
